Measurements reported in PubChem BioAssay AID463094 (The Scripps Research Institute Molecular Screening Center, 2010).
The source made the active and inactive calls.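 How the source made its calls: active means inhibition at or above 90%; inactive means inhibition below 90%.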

Molecular target: Glutathione S-transferase omega-1 (Homo sapiens) (UniProt P78417)
Assay: cellular GSTO1 activity blockade by competitive ABPP – cell-based, MDA-MB-435, in-gel fluorescence, late-stage follow-up (AID 463094)
Settings: MDA-MB-435 in situ, 1 h, at 1 µM, active compounds read high

Sequence of Glutathione S-transferase omega-1 (Homo sapiens) (P78417 whole entry, looked up): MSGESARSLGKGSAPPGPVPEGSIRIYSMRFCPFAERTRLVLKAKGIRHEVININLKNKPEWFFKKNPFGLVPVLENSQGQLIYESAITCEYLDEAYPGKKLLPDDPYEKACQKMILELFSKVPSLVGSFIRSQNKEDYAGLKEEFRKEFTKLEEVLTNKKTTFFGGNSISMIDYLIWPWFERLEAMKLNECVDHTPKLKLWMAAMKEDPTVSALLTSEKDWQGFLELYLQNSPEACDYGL

Row | Compound | inhibition
1 | COc1ccc(N(C(=O)CCl)C(C(=O)NC2CCCCC2)c2cccnc2)cc1 (stereo not given) | 95%
2 | COc1ccc(C(C(=O)NC2CCCCC2)N(C(=O)CCl)c2ccc(Cl)cc2)cc1 (stereo not given) | 60% (inactive)
3 | C#CCCCCNC(=O)C(c1cccnc1)N(C(=O)CCl)c1ccc(F)cc1 (stereo not given) | 95%
4 | C#CCN(CCCN(C(=O)CCl)c1ccc([N+](=O)[O-])cc1)C(=O)C(F)(F)F | 100%
5 | O=S(=O)(c1ccc(Cl)cc1)N1CCC2(CC1)CO2 | 17% (inactive)
6 | C#CCNC(=O)C(c1ccc(OC)cc1)N(C(=O)CCl)c1cccc(Cl)c1 (stereo not given) | 77% (inactive)
7 | C#CCNC(=O)C(c1ccc(OC)cc1)N(C(=O)CCl)c1ccc(Cl)cc1 (stereo not given) | 30% (inactive)
8 | COc1ccc(C(C(=O)NC2CCCCC2)N(C(=O)CCl)c2cccc(Cl)c2)cc1 (stereo not given) | 100%
9 | COc1ccc(N(C(=O)CCl)C(C(=O)NCCc2ccccc2)c2cccs2)cc1Cl (stereo not given) | 95%
10 | C#CCCCCNC(=O)C(c1ccc(OC)cc1)N(C(=O)CCl)c1cccc(Cl)c1 (stereo not given) | 90%
11 | O=C(NC1CCCCC1)C(c1cccnc1)N(C(=O)CCl)c1cccc(Cl)c1 (stereo not given) | 100%
12 | O=C(NC1CCCCC1)C(c1cccnc1)N(C(=O)CCl)c1ccc(F)cc1 (stereo not given) | 100%
13 | CCOC(=O)c1sc(N(Cc2ccccc2)C(=O)CCl)nc1C | 65% (inactive)
14 | Cc1cccc(CN2CCN(C(=O)CCl)CC2)c1 | 53% (inactive)
15 | C#CCCC(=O)NCCCN(C(=O)CCl)c1ccc([N+](=O)[O-])cc1 | 97%
